Measurements as given in ChEMBL document CHEMBL3885861, “Open TG-GATES”.

Species on record: Rattus norvegicus
Experiment: Open TG-GATES - Regimen: Daily Repeat
Assay type: toxicity, organism-based, Sprague-Dawley
Set-up: regimen Daily Repeat, gender Male, age 6 weeks
Settings: in vivo, po, 10 mg/kg, route gavage, dose level Middle; for APTT / Bas / Eos / Fbg / Hb / Ht / Lym / MCH / MCHC / MCV / Mono / Neu / PT / Plat / RBC / Ret / WBC: tissue Blood; for KIDNEY_L / KIDNEY_R / KIDNEY_TOTAL: tissue Kidney; for LIVER: tissue Liver; for A/G / ALP / ALT / AST / BUN / CRE / Ca / Cl / DBIL / GLC / IP / K / LDH / Na / PL / RALB / TBIL / TC / TG / TP / gamma-GTP: tissue Plasma

Which results are given for `Nc1c2c(nc3ccccc13)CCCC2` [TACRINE]?
TERMINAL_BW (72 h, time 3 day): 217.3 g; APTT (72 h, time 3 day): 19.9 s; Bas (72 h, time 3 day): 0%; Eos (72 h, time 3 day): 1%; Fbg (72 h, time 3 day): 290 mg/dL; Hb (72 h, time 3 day): 13.5 g/dL; Ht (72 h, time 3 day): 38.4%; Lym (72 h, time 3 day): 76.8%; MCH (72 h, time 3 day): 21 pg; MCHC (72 h, time 3 day): 35.3%; MCV (72 h, time 3 day): 59.5 fL; Mono (72 h, time 3 day): 2.2%; Neu (72 h, time 3 day): 19.2%; PT (72 h, time 3 day): 15.7 s; Plat (72 h, time 3 day): 128 x10_4/uL; RBC (72 h, time 3 day): 645.4 x10_4/ul; Ret (72 h, time 3 day): 5.5%; WBC (72 h, time 3 day): 74.8 x10_2/uL; KIDNEY_L (72 h, time 3 day): 0.9 g; KIDNEY_R (72 h, time 3 day): 1 g; KIDNEY_TOTAL (72 h, time 3 day): 1.9 g; LIVER (72 h, time 3 day): 9.2 g; A/G (72 h, time 3 day): 1.2; ALP (72 h, time 3 day): 1488.6 IU/L; ALT (72 h, time 3 day): 42.6 IU/L; AST (72 h, time 3 day): 75.4 IU/L; BUN (72 h, time 3 day): 14.4 mg/dL; CRE (72 h, time 3 day): 0.2 mg/dL; Ca (72 h, time 3 day): 10.6 mg/dL; Cl (72 h, time 3 day): 108 meq/L; DBIL (72 h, time 3 day): 0 mg/dL; GLC (72 h, time 3 day): 186.2 mg/dL; IP (72 h, time 3 day): 7.1 mg/dL; K (72 h, time 3 day): 4.4 meq/L; LDH (72 h, time 3 day): 253 IU/L; Na (72 h, time 3 day): 142 meq/L; PL (72 h, time 3 day): 153.6 mg/dL; RALB (72 h, time 3 day): 3.1 g/dL; TBIL (72 h, time 3 day): 0.014 mg/dL; TC (72 h, time 3 day): 78.6 mg/dL; TG (72 h, time 3 day): 94.4 mg/dL; TP (72 h, time 3 day): 5.7 g/dL; gamma-GTP (72 h, time 3 day): 1 IU/L; TERMINAL_BW ([…], time 7 day): 245.3 g; TERMINAL_BW ([…], time 14 day): 297.7 g; TERMINAL_BW ([…], time 28 day): 336.4 g; APTT ([…], time 7 day): 22.4 s; Bas ([…], time 7 day): 0%; Eos ([…], time 7 day): 0.6%; Fbg ([…], time 7 day): 307.4 mg/dL; Hb ([…], time 7 day): 14 g/dL; Ht ([…], time 7 day): 40.1%; Lym ([…], time 7 day): 77.4%; MCH ([…], time 7 day): 20.9 pg; MCHC ([…], time 7 day): 34.8%; MCV ([…], time 7 day): 60 fL; Mono ([…], time 7 day): 2.2%; Neu ([…], time 7 day): 18.8%; PT ([…], time 7 day): 15.8 s; Plat ([…], time 7 day): 117.3 x10_4/uL; RBC ([…], time 7 day): 668 x10_4/ul; Ret ([…], time 7 day): 5.4%; WBC ([…], time 7 day): 103.5 x10_2/uL; APTT ([…], time 14 day): 23.1 s; Bas ([…], time 14 day): 0%; Eos ([…], time 14 day): 0.8%; Fbg ([…], time 14 day): 317.6 mg/dL; Hb ([…], time 14 day): 14.7 g/dL; Ht ([…], time 14 day): 41.8%; Lym ([…], time 14 day): 84.4%; MCH ([…], time 14 day): 20.8 pg; MCHC ([…], time 14 day): 35.1%; MCV ([…], time 14 day): 59.4 fL; Mono ([…], time 14 day): 1.4%; Neu ([…], time 14 day): 12.6%; PT ([…], time 14 day): 15.5 s; Plat ([…], time 14 day): 117.2 x10_4/uL; RBC ([…], time 14 day): 704.4 x10_4/ul; Ret ([…], time 14 day): 4.3%; WBC ([…], time 14 day): 95.3 x10_2/uL; APTT ([…], time 28 day): 22.6 s; Bas ([…], time 28 day): 0%; Eos ([…], time 28 day): 1%; Fbg ([…], time 28 day): 301.8 mg/dL; Hb ([…], time 28 day): 15.1 g/dL; Ht ([…], time 28 day): 41.2%; Lym ([…], time 28 day): 79.6%; MCH ([…], time 28 day): 20.1 pg; MCHC ([…], time 28 day): 36.7%; MCV ([…], time 28 day): 54.7 fL; Mono ([…], time 28 day): 2%; Neu ([…], time 28 day): 16.6%; PT ([…], time 28 day): 16.4 s; Plat ([…], time 28 day): 93.2 x10_4/uL; RBC ([…], time 28 day): 752 x10_4/ul; Ret ([…], time 28 day): 2.9%; WBC ([…], time 28 day): 95.4 x10_2/uL; KIDNEY_L ([…], time 7 day): 1 g; KIDNEY_R ([…], time 7 day): 1.1 g; KIDNEY_TOTAL ([…], time 7 day): 2.1 g; KIDNEY_L ([…], time 14 day): 1.1 g; KIDNEY_R ([…], time 14 day): 1.2 g; KIDNEY_TOTAL ([…], time 14 day): 2.3 g; KIDNEY_L ([…], time 28 day): 1.2 g; KIDNEY_R ([…], time 28 day): 1.2 g; KIDNEY_TOTAL ([…], time 28 day): 2.4 g; LIVER ([…], time 7 day): 10.5 g; LIVER ([…], time 14 day): 12.6 g; LIVER ([…], time 28 day): 12.9 g; A/G ([…], time 7 day): 1.2; ALP ([…], time 7 day): 1555.6 IU/L; ALT ([…], time 7 day): 42.2 IU/L; AST ([…], time 7 day): 82.8 IU/L; BUN ([…], time 7 day): 15.8 mg/dL; CRE ([…], time 7 day): 0.2 mg/dL; Ca ([…], time 7 day): 10.6 mg/dL; Cl ([…], time 7 day): 108.2 meq/L; DBIL ([…], time 7 day): 0.004 mg/dL; GLC ([…], time 7 day): 180 mg/dL; IP ([…], time 7 day): 6.8 mg/dL; K ([…], time 7 day): 4.1 meq/L; LDH ([…], time 7 day): 235.6 IU/L; Na ([…], time 7 day): 141 meq/L; PL ([…], time 7 day): 145.2 mg/dL; RALB ([…], time 7 day): 3 g/dL; TBIL ([…], time 7 day): 0.024 mg/dL; TC ([…], time 7 day): 72.2 mg/dL; TG ([…], time 7 day): 120.8 mg/dL; TP ([…], time 7 day): 5.5 g/dL; gamma-GTP ([…], time 7 day): 1 IU/L; A/G ([…], time 14 day): 1.2; ALP ([…], time 14 day): 1291.4 IU/L; ALT ([…], time 14 day): 36.8 IU/L; AST ([…], time 14 day): 67.8 IU/L; BUN ([…], time 14 day): 18.4 mg/dL; CRE ([…], time 14 day): 0.2 mg/dL; Ca ([…], time 14 day): 10.8 mg/dL; Cl ([…], time 14 day): 108 meq/L; DBIL ([…], time 14 day): 0 mg/dL; GLC ([…], time 14 day): 185.2 mg/dL; IP ([…], time 14 day): 6.4 mg/dL; K ([…], time 14 day): 4 meq/L; LDH ([…], time 14 day): 168 IU/L; Na ([…], time 14 day): 142.6 meq/L; PL ([…], time 14 day): 152.6 mg/dL; RALB ([…], time 14 day): 3.2 g/dL; TBIL ([…], time 14 day): 0.004 mg/dL; TC ([…], time 14 day): 75 mg/dL; TG ([…], time 14 day): 136.2 mg/dL; TP ([…], time 14 day): 5.8 g/dL; gamma-GTP ([…], time 14 day): 1 IU/L; A/G ([…], time 28 day): 1.1; ALP ([…], time 28 day): 1046.8 IU/L; ALT ([…], time 28 day): 37 IU/L; AST ([…], time 28 day): 63.4 IU/L; BUN ([…], time 28 day): 18.8 mg/dL; CRE ([…], time 28 day): 0.2 mg/dL; Ca ([…], time 28 day): 10.5 mg/dL; Cl ([…], time 28 day): 107.4 meq/L; DBIL ([…], time 28 day): 0 mg/dL; GLC ([…], time 28 day): 188.8 mg/dL; IP ([…], time 28 day): 6.7 mg/dL; K ([…], time 28 day): 4.1 meq/L; LDH ([…], time 28 day): 116 IU/L; Na ([…], time 28 day): 141.8 meq/L; PL ([…], time 28 day): 142 mg/dL; RALB ([…], time 28 day): 3.1 g/dL; TBIL ([…], time 28 day): 0.006 mg/dL; TC ([…], time 28 day): 70.4 mg/dL; TG ([…], time 28 day): 121 mg/dL; TP ([…], time 28 day): 5.9 g/dL; gamma-GTP ([…], time 28 day): 1.2 IU/L
